Key:
Assay in all cases: biochemical
Design in all cases: Eurofins recombinant human kinase profiling, remaining kinase activity as % of control, 10 uM ATP
Conditions in all cases: ATP 10 uM; read-out: %Ctrl@10 μM
DAPK2(h) = DAPK2(h) (Homo sapiens, UniProt Q9UIK4)
In short: (§1)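 Activity measured in a commercial panel of 401 recombinant human protein kinases run as a kinase profiling service.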

CDKL2(h) = CDKL2(h) (Homo sapiens, UniProt Q92772)
In short: as §1

Lck(h) = Lck(h) (Homo sapiens, UniProt P06239)
In short: as §1

DYRK1B(h) = DYRK1B(h) (Homo sapiens, UniProt Q9Y463)
In short: as §1

Src(T341M)(h) = Src(T341M)(h) (Homo sapiens, UniProt P12931, T341M)
Src(T341M)(h), sequence (P12931 whole entry T341M): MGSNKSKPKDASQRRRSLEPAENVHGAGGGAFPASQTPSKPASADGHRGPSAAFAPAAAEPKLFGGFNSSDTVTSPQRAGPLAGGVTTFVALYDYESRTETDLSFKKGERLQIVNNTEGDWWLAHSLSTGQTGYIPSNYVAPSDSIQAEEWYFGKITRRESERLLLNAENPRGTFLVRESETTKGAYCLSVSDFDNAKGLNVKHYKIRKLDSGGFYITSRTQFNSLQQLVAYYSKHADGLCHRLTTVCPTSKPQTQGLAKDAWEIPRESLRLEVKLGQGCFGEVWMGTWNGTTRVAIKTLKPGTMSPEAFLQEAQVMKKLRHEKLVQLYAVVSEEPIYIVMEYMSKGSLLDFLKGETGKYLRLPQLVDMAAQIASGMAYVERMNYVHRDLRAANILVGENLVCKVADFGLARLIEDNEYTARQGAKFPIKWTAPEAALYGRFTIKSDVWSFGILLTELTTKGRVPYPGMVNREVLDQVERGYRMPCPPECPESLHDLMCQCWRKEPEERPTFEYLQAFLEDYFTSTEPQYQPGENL
In short: as §1

ZAP-70(h) = biological target: T1, ZAP-70(h) (Homo sapiens, UniProt P43403)
T1 construct: gene ZAP70
In short: as §1

ROCK-I(h) = biological target: T2, ROCK-I(h) (Homo sapiens, UniProt Q13464)
T2 construct: gene ROCK1
In short: as §1

NUAK2(h) = NUAK2(h) (Homo sapiens, UniProt Q9H093)
In short: as §1

Fms(Y969C)(h) = biological target: T3, Fms(Y969C)(h) (Homo sapiens, UniProt P07333, Y969C)
T3 construct: gene CSF1R
In short: as §1

NEK6(h) = NEK6(h) (Homo sapiens, UniProt Q9HC98)
NEK6(h), sequence (Q9HC98 whole entry): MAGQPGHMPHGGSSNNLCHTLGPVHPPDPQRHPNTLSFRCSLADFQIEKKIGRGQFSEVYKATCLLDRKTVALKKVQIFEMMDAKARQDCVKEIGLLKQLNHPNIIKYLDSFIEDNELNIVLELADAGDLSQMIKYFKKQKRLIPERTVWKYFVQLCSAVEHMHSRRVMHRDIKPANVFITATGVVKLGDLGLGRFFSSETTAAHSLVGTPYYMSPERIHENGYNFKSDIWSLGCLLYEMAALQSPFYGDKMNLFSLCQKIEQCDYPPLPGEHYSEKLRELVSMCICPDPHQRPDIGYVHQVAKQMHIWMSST
In short: as §1

GRK2(h) = GRK2(h) (Homo sapiens, UniProt P25098)
In short: as §1

MKK3(h) = biological target: T4, MKK3(h) (Homo sapiens, UniProt P46734)
T4 construct: gene MAP2K3
T4 sequence (P46734 whole entry): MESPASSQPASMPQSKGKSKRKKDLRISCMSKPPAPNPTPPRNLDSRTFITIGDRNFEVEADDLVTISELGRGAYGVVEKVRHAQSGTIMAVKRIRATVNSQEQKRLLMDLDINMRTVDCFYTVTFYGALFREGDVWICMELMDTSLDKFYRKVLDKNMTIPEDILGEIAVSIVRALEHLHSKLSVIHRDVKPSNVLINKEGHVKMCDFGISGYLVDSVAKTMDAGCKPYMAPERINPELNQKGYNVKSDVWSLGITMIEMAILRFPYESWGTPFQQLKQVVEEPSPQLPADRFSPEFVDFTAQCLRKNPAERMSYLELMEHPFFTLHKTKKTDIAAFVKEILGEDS
In short: as §1

STK32C(h) = STK32C(h) (Homo sapiens, UniProt Q86UX6)
In short: as §1

TNIK(h) = TNIK(h) (Homo sapiens, UniProt Q9UKE5)
TNIK(h), sequence (Q9UKE5 whole entry): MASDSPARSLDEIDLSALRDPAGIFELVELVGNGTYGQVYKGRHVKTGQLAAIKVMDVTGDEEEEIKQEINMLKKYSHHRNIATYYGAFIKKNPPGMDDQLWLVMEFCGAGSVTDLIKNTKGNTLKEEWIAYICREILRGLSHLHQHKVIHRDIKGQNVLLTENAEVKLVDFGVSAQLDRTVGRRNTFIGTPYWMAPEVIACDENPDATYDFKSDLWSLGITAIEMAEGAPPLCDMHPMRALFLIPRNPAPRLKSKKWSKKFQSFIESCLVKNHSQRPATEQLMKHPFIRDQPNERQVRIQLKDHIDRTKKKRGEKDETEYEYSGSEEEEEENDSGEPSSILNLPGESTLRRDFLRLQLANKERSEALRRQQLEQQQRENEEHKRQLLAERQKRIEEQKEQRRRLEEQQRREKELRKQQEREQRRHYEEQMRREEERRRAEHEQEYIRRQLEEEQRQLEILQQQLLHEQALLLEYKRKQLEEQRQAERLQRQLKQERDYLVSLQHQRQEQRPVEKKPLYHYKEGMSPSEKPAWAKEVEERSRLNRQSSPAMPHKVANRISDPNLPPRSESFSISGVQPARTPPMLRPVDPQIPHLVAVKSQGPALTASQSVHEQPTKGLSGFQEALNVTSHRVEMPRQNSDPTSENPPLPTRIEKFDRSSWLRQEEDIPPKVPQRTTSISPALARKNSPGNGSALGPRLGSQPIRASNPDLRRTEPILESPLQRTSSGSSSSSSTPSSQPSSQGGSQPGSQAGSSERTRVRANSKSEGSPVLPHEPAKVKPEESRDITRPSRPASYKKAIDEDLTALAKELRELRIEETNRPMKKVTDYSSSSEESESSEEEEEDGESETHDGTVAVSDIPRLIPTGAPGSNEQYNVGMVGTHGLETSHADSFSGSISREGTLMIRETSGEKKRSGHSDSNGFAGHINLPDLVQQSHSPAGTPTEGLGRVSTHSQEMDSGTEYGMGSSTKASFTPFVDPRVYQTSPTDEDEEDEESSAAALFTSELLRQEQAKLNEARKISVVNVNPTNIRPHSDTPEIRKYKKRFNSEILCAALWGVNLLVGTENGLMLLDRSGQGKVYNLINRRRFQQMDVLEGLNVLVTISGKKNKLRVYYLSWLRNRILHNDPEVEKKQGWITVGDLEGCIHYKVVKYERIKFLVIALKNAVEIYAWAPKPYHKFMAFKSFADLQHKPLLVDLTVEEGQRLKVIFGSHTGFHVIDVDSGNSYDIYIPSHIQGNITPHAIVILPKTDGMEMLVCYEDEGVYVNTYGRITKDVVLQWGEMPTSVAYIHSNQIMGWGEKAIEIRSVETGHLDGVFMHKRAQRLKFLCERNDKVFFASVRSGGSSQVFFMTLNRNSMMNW
In short: as §1

SNRK(h) = SNRK(h) (Homo sapiens, UniProt Q9NRH2)
In short: as §1

JNK1α1(h) = biological target: T5, JNK1α1(h) (Homo sapiens, UniProt P45983)
T5 construct: gene MAPK8; isoform alpha1
T5 sequence (P45983 whole entry, canonical isoform): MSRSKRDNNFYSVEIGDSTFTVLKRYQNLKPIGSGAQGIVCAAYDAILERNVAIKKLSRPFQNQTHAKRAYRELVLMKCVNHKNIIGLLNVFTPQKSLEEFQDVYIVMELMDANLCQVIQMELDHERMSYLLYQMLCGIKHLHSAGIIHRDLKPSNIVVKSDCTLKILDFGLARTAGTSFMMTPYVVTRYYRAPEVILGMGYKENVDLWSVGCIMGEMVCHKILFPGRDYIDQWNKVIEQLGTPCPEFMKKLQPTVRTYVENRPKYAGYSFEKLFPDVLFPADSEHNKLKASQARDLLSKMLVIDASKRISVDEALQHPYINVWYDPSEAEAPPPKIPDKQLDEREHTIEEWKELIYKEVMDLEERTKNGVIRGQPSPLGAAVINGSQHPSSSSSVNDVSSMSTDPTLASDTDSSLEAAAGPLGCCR
In short: as §1

PAK5(h) = PAK5(h) (Homo sapiens, UniProt Q9P286)
PAK5(h), sequence (Q9P286 whole entry): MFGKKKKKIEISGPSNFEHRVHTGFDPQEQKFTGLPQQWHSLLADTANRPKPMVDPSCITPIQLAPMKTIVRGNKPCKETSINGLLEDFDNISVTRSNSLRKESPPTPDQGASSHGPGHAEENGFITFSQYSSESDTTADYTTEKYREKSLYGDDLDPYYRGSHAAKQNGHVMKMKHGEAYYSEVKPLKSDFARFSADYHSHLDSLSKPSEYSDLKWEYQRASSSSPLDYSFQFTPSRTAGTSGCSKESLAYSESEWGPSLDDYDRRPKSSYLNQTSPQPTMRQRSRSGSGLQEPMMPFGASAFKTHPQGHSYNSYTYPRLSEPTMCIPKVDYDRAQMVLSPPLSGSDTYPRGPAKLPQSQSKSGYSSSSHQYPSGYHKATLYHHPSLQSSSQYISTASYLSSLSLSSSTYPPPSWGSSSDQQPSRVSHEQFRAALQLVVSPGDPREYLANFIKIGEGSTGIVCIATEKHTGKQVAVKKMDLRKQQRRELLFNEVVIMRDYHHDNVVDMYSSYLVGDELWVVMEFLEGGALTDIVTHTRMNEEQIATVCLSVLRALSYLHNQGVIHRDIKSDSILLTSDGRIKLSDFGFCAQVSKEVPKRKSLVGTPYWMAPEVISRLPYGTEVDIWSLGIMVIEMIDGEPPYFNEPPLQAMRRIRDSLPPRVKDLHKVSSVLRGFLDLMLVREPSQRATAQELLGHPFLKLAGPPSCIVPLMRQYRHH
In short: as §1

Pim-2(h) = biological target: T6, Pim-2(h) (Homo sapiens, UniProt Q9P1W9)
T6 construct: gene PIM2
In short: as §1

CDK1/cyclinB(h) = CDK1/cyclinB(h) (Homo sapiens, UniProt P06493)
CDK1/cyclinB(h), sequence (P06493 whole entry): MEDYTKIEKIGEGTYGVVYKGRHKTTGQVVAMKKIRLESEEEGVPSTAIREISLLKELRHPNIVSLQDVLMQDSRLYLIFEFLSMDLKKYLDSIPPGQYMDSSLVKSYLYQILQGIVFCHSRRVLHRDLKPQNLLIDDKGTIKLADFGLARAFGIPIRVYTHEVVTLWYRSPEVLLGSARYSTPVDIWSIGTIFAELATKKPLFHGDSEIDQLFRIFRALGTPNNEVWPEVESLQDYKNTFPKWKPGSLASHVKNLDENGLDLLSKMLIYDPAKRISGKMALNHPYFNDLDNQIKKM
CDK1/cyclinB(h), sequence (P14635 whole entry partner): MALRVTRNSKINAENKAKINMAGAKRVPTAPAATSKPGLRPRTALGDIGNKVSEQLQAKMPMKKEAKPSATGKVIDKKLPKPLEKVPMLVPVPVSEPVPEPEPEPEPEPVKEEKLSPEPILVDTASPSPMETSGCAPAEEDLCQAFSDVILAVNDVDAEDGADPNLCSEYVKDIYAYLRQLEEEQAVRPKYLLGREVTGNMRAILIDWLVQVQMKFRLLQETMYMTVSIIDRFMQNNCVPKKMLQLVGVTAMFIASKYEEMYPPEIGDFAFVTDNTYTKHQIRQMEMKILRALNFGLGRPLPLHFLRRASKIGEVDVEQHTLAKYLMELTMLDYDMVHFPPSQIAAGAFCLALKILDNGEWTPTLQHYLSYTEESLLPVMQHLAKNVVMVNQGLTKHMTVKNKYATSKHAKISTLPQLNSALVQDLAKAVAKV
In short: as §1

cSRC(h) = biological target: T7, cSRC(h) (Homo sapiens, UniProt P12931)
T7 construct: gene SRC
In short: as §1

Bmx(h) = Bmx(h) (Homo sapiens, UniProt P51813)
In short: as §1

MST4(h) = biological target: T8, MST4(h) (Homo sapiens, UniProt Q9P289)
T8 construct: gene STK26
T8 sequence (Q9P289 whole entry): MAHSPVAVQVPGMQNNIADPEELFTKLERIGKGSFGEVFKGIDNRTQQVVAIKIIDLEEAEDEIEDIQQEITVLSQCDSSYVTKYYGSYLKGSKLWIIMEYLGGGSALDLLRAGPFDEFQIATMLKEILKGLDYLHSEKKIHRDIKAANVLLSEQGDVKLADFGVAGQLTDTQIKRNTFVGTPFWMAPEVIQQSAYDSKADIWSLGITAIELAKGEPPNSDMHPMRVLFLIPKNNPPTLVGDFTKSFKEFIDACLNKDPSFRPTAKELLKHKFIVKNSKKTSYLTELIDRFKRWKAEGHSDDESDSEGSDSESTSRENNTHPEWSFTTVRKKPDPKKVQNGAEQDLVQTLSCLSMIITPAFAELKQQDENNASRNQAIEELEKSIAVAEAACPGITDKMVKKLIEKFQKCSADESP
In short: as §1

EphA2(h) = EphA2(h) (Homo sapiens, UniProt P29317)
In short: as §1

Work on `C1=C(c2nc(-c3cnn(C4CCNCC4)c3)cn3cc(-c4ccccc4)nc23)CCOC1` [YL-939] yielded a remaining activity at 10 µM (DAPK2(h)) of 138%, a remaining activity at 10 µM (CDKL2(h)) of 74% and a remaining activity at 10 µM (Lck(h)) of 122%. For the same compound, the remaining activity at 10 µM (DYRK1B(h)) was 97%, the remaining activity at 10 µM (Src(T341M)(h)) was 100% and the remaining activity at 10 µM (ZAP-70(h)) was 97%. The remaining activity at 10 µM (ROCK-I(h)) was 94%, the remaining activity at 10 µM (NUAK2(h)) was 72% and the remaining activity at 10 µM (Fms(Y969C)(h)) was 107%. For the same compound, the remaining activity at 10 µM (NEK6(h)) was 97%, the remaining activity at 10 µM (GRK2(h)) was 111% and the remaining activity at 10 µM (MKK3(h)) was 107%. It also gave a remaining activity at 10 µM (STK32C(h)) of 82%, a remaining activity at 10 µM (TNIK(h)) of 56% and a remaining activity at 10 µM (SNRK(h)) of 100%. It also gave a remaining activity at 10 µM (JNK1α1(h)) of 109%, a remaining activity at 10 µM (PAK5(h)) of 95% and a remaining activity at 10 µM (Pim-2(h)) of 84%. The remaining activity at 10 µM (CDK1/cyclinB(h)) was 92%, the remaining activity at 10 µM (cSRC(h)) was 78% and the remaining activity at 10 µM (Bmx(h)) was 87%. The remaining activity at 10 µM (MST4(h)) was 112% and the remaining activity at 10 µM (EphA2(h)) was 82%.

Source: publication PMC9719519, “Non-classical ferroptosis inhibition by a small molecule targeting PHB2” (Nature Communications, 2022)
